In patent publication US8263606B2 (Xenon Pharmaceuticals Inc., priority 2008, dated 2012) one finds melting point, inhibition and IC50 data, which are given here for ten compounds.

pIC50: −log10 of the molar value.

One data set concerns the target CYP3A4 (Homo sapiens, UniProt P08684). Description: Cytochrome P450 (CYP450) Inhibition Assay, CYP3A4 (Vivid fluorescence, BOMCC substrate). To be noted: human, P450 Baculosomes (recombinant CYP3A4), probe BOMCC (Vivid substrate).
Another data set concerns sodium channel. Description: Guanidine influx assay (14C-guanidine radiotracer flux, in vitro). Type of data set: cell-based, human or rat. To be noted: guanidine influx assay using a known cell line that expresses a sodium channel. In a few lines:
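Human or rat sodium channels stably expressed in endogenous or recombinant cells, plated ~100,000 cells/well for 20-24 h at 37 °C. Cells were treated with test agent in low-sodium choline HEPES saline plus aconitine and 14C-guanidine at ambient temperature, washed, and counted by scintillation; IC50 from 4-parameter logistic fit.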

One may read the melting point as the temperature of the solid-liquid transition. Usually inhibition stands for the relative decrease from the control value, in per cent. In general, pIC50 refers to −log10 of the IC50, conventionally taken in molar units.

Chain of CYP3A4 (P08684 whole entry): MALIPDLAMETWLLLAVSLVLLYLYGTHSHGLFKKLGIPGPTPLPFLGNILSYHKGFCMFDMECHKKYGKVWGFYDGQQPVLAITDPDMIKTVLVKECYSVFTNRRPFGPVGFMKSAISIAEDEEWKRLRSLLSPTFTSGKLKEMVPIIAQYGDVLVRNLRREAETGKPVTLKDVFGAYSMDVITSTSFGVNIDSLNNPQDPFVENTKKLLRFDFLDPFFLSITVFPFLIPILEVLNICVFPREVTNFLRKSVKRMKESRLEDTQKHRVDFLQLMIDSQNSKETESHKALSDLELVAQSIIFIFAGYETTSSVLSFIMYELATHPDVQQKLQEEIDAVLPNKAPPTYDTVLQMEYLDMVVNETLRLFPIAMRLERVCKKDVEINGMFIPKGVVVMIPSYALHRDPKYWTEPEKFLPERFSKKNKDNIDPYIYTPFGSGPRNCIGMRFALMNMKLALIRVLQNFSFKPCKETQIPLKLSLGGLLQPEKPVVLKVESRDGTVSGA

Turning to `CN(C)c1ncc(CN2C(=O)C3(COc4cc5c(cc43)OCO5)c3ccccc32)s1` (stereo not drawn) [Example 11.1, 1′-{[2-(dimethylamino)-1,3-thiazol-5-yl]methyl}spiro[furo[2,3-f][1,3]benzodioxole-7,3′-indol]-2′(1′H)-one], the melting point lay in the range of 200 to 202 °C. Besides, the inhibition at 10 µM at CYP3A4 was more than 50%. Also, the pIC50 in the data set on sodium channel is 7.00 to 9.00.
Regarding `O=C1N(Cc2cnc(N3CCOCC3)s2)c2ccccc2C12COc1cc3c(cc12)OCO3` (stereo not drawn) [Example 11.2, 1′-[(2-morpholin-4-yl-1,3-thiazol-5-yl)methyl]spiro[furo[2,3-f][1,3]benzodioxole-7,3′-indol]-2′(1′H)-one], the melting point is 97 to 99 °C. The inhibition at 10 µM on CYP3A4 is more than 50%. Further, the negative logarithm of the IC50 (pIC50) in the data set on sodium channel was 6.00 to 7.00.
In turn, `O=C1N(Cc2cnc(N3CCCCC3)s2)c2ccccc2C12COc1cc3c(cc12)OCO3` (stereo not drawn) [Example 11.3, 1′-[(2-piperidin-1-yl-1,3-thiazol-5-yl)methyl]spiro[furo[2,3-f][1,3]benzodioxole-7,3′-indol]-2′(1′H)-one] had a melting point of 195 to 197 °C. Moreover, on CYP3A4, the inhibition at 10 µM was more than 50%. The pIC50 with sodium channel is 6.00 to 7.00.
`COc1ncc(CN2C(=O)C3(COc4cc5c(cc43)OCO5)c3ccccc32)s1` (stereo not drawn) [Example 11.4, 1′-[(2-methoxy-1,3-thiazol-5-yl)methyl]spiro[furo[2,3-f][1,3]benzodioxole-7,3′-indol]-2′(1′H)-one]: the melting point lay within 164 to 166 °C. At CYP3A4, the inhibition at 10 µM is more than 50%. Further, in the data set with sodium channel, the pIC50 is 7.00 to 9.00.
In the case of `CN1CCC(CN2C(=O)C3(COc4cc5c(cc43)CCO5)c3ccccc32)CC1` (stereo not drawn) [Example 11.10, 1′-[(1-methylpiperidin-4-yl)methyl]-5,6-dihydrospiro[benzo[1,2-b:5,4-b′]difuran-3,3′-indol]-2′(1′H)-one], the melting point was 155 to 158 °C. Also, the inhibition at 10 µM on CYP3A4 is more than 50%. Besides, the pIC50 in the data set on sodium channel was not above 5.00.
`O=C(O)c1cccc(CN2C(=O)C3(COc4cc5c(cc43)CCO5)c3ccccc32)c1` (stereo not drawn) [Example 11.12, 3-[(2′-oxo-5,6-dihydrospiro[benzo[1,2-b:5,4-b′]difuran-3,3′-indol]-1′(2′H)-yl)methyl]benzoic acid] showed a melting point of more than 250 °C. At CYP3A4, the inhibition at 10 µM is less than 50%. Also, the negative-log IC50 (pIC50) with sodium channel was 5.00 to 6.00.
Turning to `O=C1N(Cc2ccc(-c3noc(C(F)(F)F)n3)cc2)c2ccccc2C12COc1cc3c(cc12)CCO3` (stereo not drawn) [Example 11.13, 1′-{4-[5-(trifluoromethyl)-1,2,4-oxadiazol-3-yl]benzyl}-5,6-dihydrospiro[benzo[1,2-b:5,4-b′]difuran-3,3′-indol]-2′(1′H)-one], the melting point lay in the range of 178 to 179 °C. Also, the inhibition at 10 µM on CYP3A4 is less than 50%. Further, in the data set with sodium channel, the negative logarithm of the IC50 (pIC50) is 6.00 to 7.00.
For `O=C1N(CCc2noc(C(F)(F)F)n2)c2ccccc2C12COc1cc3c(cc12)OCO3` (stereo not drawn) [Example 11.18, 1′-{2-[5-(trifluoromethyl)-1,2,4-oxadiazol-3-yl]ethyl}spiro[furo[2,3-f][1,3]benzodioxole-7,3′-indol]-2′(1′H)-one], the melting point lay in the range of 45 to 48 °C. The inhibition at 10 µM at CYP3A4 is more than 50%. The pIC50 in the data set with sodium channel was 7.00 to 9.00.
`O=C1N(Cc2noc(C(F)(F)F)n2)c2cccc(Cl)c2C12COc1cc3c(cc12)OCO3` (stereo not drawn) [Example 11.19, 4′-chloro-1′-{[5-(trifluoromethyl)-1,2,4-oxadiazol-3-yl]methyl}spiro[furo[2,3-f][1,3]benzodioxole-7,3′-indol]-2′(1′H)-one] yielded a melting point of 138 to 140 °C. At CYP3A4, the inhibition at 10 µM is more than 50%. The pIC50 in the data set on sodium channel is 7.00 to 9.00.
In the case of `O=C1N(Cc2noc(C3CC3)n2)c2cccc(Cl)c2C12COc1cc3c(cc12)OCO3` (stereo not drawn) [Example 11.20, 4′-chloro-1′-[(5-cyclopropyl-1,2,4-oxadiazol-3-yl)methyl]spiro[furo[2,3-f][1,3]benzodioxole-7,3′-indol]-2′(1′H)-one], the melting point fell in the range of 180 to 182 °C. For the same compound, the inhibition at 10 µM on CYP3A4 is more than 50%. The pIC50 with sodium channel is 7.00 to 9.00.
